Reference: article PMC4501006, “Preliminary Characterization and In Vivo Studies of Structurally Identical ^18F- and ^125I-Labeled Benzyloxybenzenes for PET/SPECT Imaging of β-Amyloid Plaques” (Scientific Reports, 2015)
Several values for one entry are separate records, joined by “and”; a condition that tells them apart may be missing. Equal entries are not always repeated.

Columns and labels:
[1] = In vivo biodistribution in normal ICR mice; conditions: i.v.
Experimental: Histograms of brain and intestine uptake were presented in Fig. 6 for comparison, while detailed data concerning the in vivo biodistribution in normal ICR mice were collected in Table S3 in Supplementary information. […] [^125I]7a and [^125I]12a were rapidly cleared from the normal brain, with only small amounts of radioactivity remaining at 60 min post-injection (0.55% ID/g for [^125I]7a and 0.37% ID/g for [^125I]12a). […] In addition, no significant deiodination was observed (less than 0.5% ID in the thyroid at 60 min).
As the specific activity of ^18F-labeled ligands (about 60 GBq/μmol) was slightly lower than that of corresponding no-carrier-added ^125I-labeled ligands (81 GBq/μmol), the impact of specific activity on pharmacokinetics was studied. In vivo biodistribution of radioactivity after injection of carrier-added [^125I]7a with equal specific activity to corresponding [^18F]7a (60 GBq/μmol) was conducted in normal ICR mice through the same procedure.
A structural model of an Aβ fiber (PDB ID: 2LMO) derived from solid state NMR was downloaded from the RCSB Protein Data Bank (www.rcsb.org/pdb). Geometric optimization was performed using Gaussian 09 at the B3LYP/6–31 G and 3-21G levels in the water phase. Molecular docking was performed using AutoDock4.0, and the docking results were graphed with VMD 1.9.1 software. SYBYL-X 1.1 software was used to predict the binding affinities with previously constructed 3D-QSAR models. All reagents for chemical synthesis were used as purchased without further purification. [^125I]NaI was purchased from PerkinElmer and ^18F^– was kindly provided by the Chinese PLA General Hospital. ^1H and ^13C NMR spectra were recorded on a Bruker Avance III NMR spectrometer (400 MHz for ^1H; 101 MHz for ^13C) in CDCl3 or DMSO-d6 solutions at room temperature. Mass spectra were acquired with a GCT CA127 Micronass UK instrument. X-ray crystallographic data of compound 12a were collected on a Bruker Smart APEX II diffractometer (Bruker Co., Germany) and deposited at the Cambridge Crystallographic Data Centre as supplementary publication (no. CCDC 1063679). HPLC analysis was performed on a Shimadzu SCL-20 AVP equipped with a Bioscan Flow Count 3200 NaI/PMT γ-radiation scintillation detector and a SPD-20A UV detector, λ = 254 nm. A Venusil MP C18 reverse phase column (Agela Technologies, 5 μm, 4.6 × 250 mm) was used for separations and purity determinations with a binary gradient system (acetonitrile: water = 80%: 20%) at a 1.0 mL/min flow rate. Fluorescent observation was performed on the Axio Observer Z1 inverted fluorescence microscope (Zeiss, Germany) equipped with a DAPI filter set (excitation, 405 nm). Post-mortem brain sections from an autopsy-confirmed AD subject and a control subject were acquired from the Chinese Brain Bank. Transgenic mice (APPswe/PSEN1, male) and wild-type mice (C57BL6, male) were purchased from the Institute of Laboratory Animal Science, Chinese Academy of Medical Sciences. Normal ICR mice (20–22 g, male) were used for in vivo biodistribution, dynamic PET/CT and SPECT/CT scans, and biostability experiments. All experiments on mice were performed in accordance with the guidelines approved by the animal care committee of Beijing Normal University and Xiamen University.

Aβ plaques = Aβ plaques (Homo sapiens, UniProt P05067); experiment: In vitro autoradiography on AD human brain sections; assay type: binding
Source text: Figure 5 In vitro autoradiography of [^125I]7a (a–d), [^18F]7a (e–h), [^125I]12a (i–l) and [^18F]12a (m–p).

[2] = Partition coefficient determination (log D); assay type: physicochemical
Experimental: An ideal Aβ imaging probe would combine a high binding affinity to Aβ plaques and excellent pharmacokinetics with high initial brain uptake and rapid washout from normal brain regions. Thus, the partition coefficients of these four radiolabeled ligands were determined to estimate their ability to penetrate the BBB.

[3] = carrier-added, SA ≈ 60 GBq/μmol, 2 min
[4] = carrier-added, SA ≈ 60 GBq/μmol, 10 min
[5] = carrier-added, SA ≈ 60 GBq/μmol, 30 min
[6] = carrier-added, SA ≈ 60 GBq/μmol, 60 min

Chain of Aβ plaques (P05067 672-711 limits assumed): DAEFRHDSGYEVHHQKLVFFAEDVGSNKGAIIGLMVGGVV

Compound: FCCOc1ccc(OCc2ccc([125I])cc2)cc1 [[^125I]7a]
- Biodistribution of radioactivity, blood [1, 3]: 3.30 ± 0.43 % injected dose per gram
- Biodistribution of radioactivity, brain [1, 3]: 5.39 % injected dose per gram
- Biodistribution of radioactivity, heart [1, 3]: 7.34 ± 0.69 % injected dose per gram
- Biodistribution of radioactivity, intestine [1, 3]: 4.57 ± 0.96 % injected dose per organ
- Biodistribution of radioactivity, kidney [1, 3]: 9.80 ± 1.05 % injected dose per gram
- Biodistribution of radioactivity, liver [1, 3]: 12.12 ± 2.01 % injected dose per gram
- Biodistribution of radioactivity, lung [1, 3]: 7.77 ± 0.18 % injected dose per gram
- Biodistribution of radioactivity, muscle [1, 3]: 3.37 ± 0.50 % injected dose per gram
- Biodistribution of radioactivity, pancreas [1, 3]: 6.79 ± 1.53 % injected dose per gram
- Biodistribution of radioactivity, spleen [1, 3]: 3.63 ± 0.83 % injected dose per gram
- Biodistribution of radioactivity, stomach [1, 3]: 1.15 ± 0.21 % injected dose per organ
- Biodistribution of radioactivity, thyroid [1, 3]: 0.12 ± 0.03 % injected dose per organ
- Biodistribution of radioactivity, brain ([1]; carrier-added, SA ≈ 60 GBq/μmol, 2 min, listed as [125I]7a): 5.39 ± 0.36 % injected dose per gram
- Biodistribution of radioactivity, blood [1, 4]: 2.31 ± 0.22 % injected dose per gram
- Biodistribution of radioactivity, brain [1, 4]: 3.51 ± 0.36 % injected dose per gram
- Biodistribution of radioactivity, heart [1, 4]: 2.32 ± 0.15 % injected dose per gram
- Biodistribution of radioactivity, intestine [1, 4]: 8.51 ± 0.48 % injected dose per organ
- Biodistribution of radioactivity, kidney [1, 4]: 10.01 ± 1.43 % injected dose per gram
- Biodistribution of radioactivity, liver [1, 4]: 11.30 ± 0.58 % injected dose per gram
- Biodistribution of radioactivity, lung [1, 4]: 6.50 ± 0.69 % injected dose per gram
- Biodistribution of radioactivity, muscle [1, 4]: 1.42 ± 0.20 % injected dose per gram
- Biodistribution of radioactivity, pancreas [1, 4]: 2.79 ± 0.35 % injected dose per gram
- Biodistribution of radioactivity, spleen [1, 4]: 1.53 ± 0.23 % injected dose per gram
- Biodistribution of radioactivity, stomach [1, 4]: 0.74 ± 0.09 % injected dose per organ
- Biodistribution of radioactivity, thyroid [1, 4]: 0.11 ± 0.01 % injected dose per organ
- Biodistribution of radioactivity, blood [1, 5]: 1.39 ± 0.15 % injected dose per gram
- Biodistribution of radioactivity, brain [1, 5]: 0.97 ± 0.11 % injected dose per gram
- Biodistribution of radioactivity, heart [1, 5]: 0.96 ± 0.13 % injected dose per gram
- Biodistribution of radioactivity, intestine [1, 5]: 18.87 ± 2.27 % injected dose per organ
- Biodistribution of radioactivity, kidney [1, 5]: 6.25 ± 1.23 % injected dose per gram
- Biodistribution of radioactivity, liver [1, 5]: 6.29 ± 0.22 % injected dose per gram
- Biodistribution of radioactivity, lung [1, 5]: 4.30 ± 0.58 % injected dose per gram
- Biodistribution of radioactivity, muscle [1, 5]: 0.95 ± 0.08 % injected dose per gram
- Biodistribution of radioactivity, pancreas [1, 5]: 1.06 ± 0.16 % injected dose per gram
- Biodistribution of radioactivity, spleen [1, 5]: 0.62 ± 0.03 % injected dose per gram
- Biodistribution of radioactivity, stomach [1, 5]: 1.67 ± 0.33 % injected dose per organ
- Biodistribution of radioactivity, thyroid [1, 5]: 0.12 ± 0.04 % injected dose per organ
- Biodistribution of radioactivity, blood [1, 6]: 0.83 ± 0.06 % injected dose per gram
- Biodistribution of radioactivity, brain [1, 6]: 0.37 % injected dose per gram
- Biodistribution of radioactivity, heart [1, 6]: 0.55 ± 0.10 % injected dose per gram
- Biodistribution of radioactivity, intestine [1, 6]: 25.30 ± 3.94 % injected dose per organ
- Biodistribution of radioactivity, kidney [1, 6]: 3.40 ± 0.48 % injected dose per gram
- Biodistribution of radioactivity, liver [1, 6]: 3.31 ± 0.37 % injected dose per gram
- Biodistribution of radioactivity, lung [1, 6]: 1.91 ± 0.29 % injected dose per gram
- Biodistribution of radioactivity, muscle [1, 6]: 0.72 ± 0.20 % injected dose per gram
- Biodistribution of radioactivity, pancreas [1, 6]: 0.57 ± 0.05 % injected dose per gram
- Biodistribution of radioactivity, spleen [1, 6]: 0.36 ± 0.03 % injected dose per gram
- Biodistribution of radioactivity, stomach [1, 6]: 1.04 ± 0.30 % injected dose per organ
- Biodistribution of radioactivity, thyroid [1, 6]: 0.22 ± 0.05 % injected dose per organ
- Biodistribution of radioactivity, brain ([1]; carrier-added, SA ≈ 60 GBq/μmol, 60 min, listed as [125I]7a): 0.37 ± 0.05 % injected dose per gram
- brain2 min/brain60 min ratio [1]: 12.8
- Biodistribution of radioactivity, blood ([1]; 2 min): 5.03 ± 0.20 % injected dose per gram
- Biodistribution of radioactivity, brain ([1]; 2 min): > 5 % injected dose per gram and 7.04 % injected dose per gram
- Biodistribution of radioactivity, heart ([1]; 2 min): 9.70 ± 2.25 % injected dose per gram
- Biodistribution of radioactivity, intestine ([1]; 2 min): 6.46 ± 0.79 % injected dose per organ
- Biodistribution of radioactivity, kidney ([1]; 2 min): 12.03 ± 1.20 % injected dose per gram
- Biodistribution of radioactivity, liver ([1]; 2 min): 22.45 ± 3.88 % injected dose per gram
- Biodistribution of radioactivity, lung ([1]; 2 min): 10.78 ± 2.33 % injected dose per gram
- Biodistribution of radioactivity, muscle ([1]; 2 min): 3.72 ± 0.51 % injected dose per gram
- Biodistribution of radioactivity, pancreas ([1]; 2 min): 8.15 ± 1.09 % injected dose per gram
- Biodistribution of radioactivity, spleen ([1]; 2 min): 3.86 ± 0.21 % injected dose per gram
- Biodistribution of radioactivity, stomach ([1]; 2 min): 1.32 ± 0.21 % injected dose per organ
- Biodistribution of radioactivity, thyroid ([1]; 2 min): 0.12 ± 0.02 % injected dose per organ
- Biodistribution of radioactivity, brain ([1]; 2 min, listed as [125I]7a): 7.04 ± 0.89 % injected dose per gram
- Biodistribution of radioactivity, blood ([1]; 10 min): 3.03 ± 0.48 % injected dose per gram
- Biodistribution of radioactivity, brain ([1]; 10 min): 2.73 ± 0.25 % injected dose per gram
- Biodistribution of radioactivity, heart ([1]; 10 min): 2.01 ± 0.14 % injected dose per gram
- Biodistribution of radioactivity, intestine ([1]; 10 min): 17.21 ± 2.33 % injected dose per organ
- Biodistribution of radioactivity, kidney ([1]; 10 min): 9.53 ± 1.58 % injected dose per gram
- Biodistribution of radioactivity, liver ([1]; 10 min): 14.43 ± 2.37 % injected dose per gram
- Biodistribution of radioactivity, lung ([1]; 10 min): 7.44 ± 1.59 % injected dose per gram
- Biodistribution of radioactivity, muscle ([1]; 10 min): 1.28 ± 0.11 % injected dose per gram
- Biodistribution of radioactivity, pancreas ([1]; 10 min): 2.07 ± 0.30 % injected dose per gram
- Biodistribution of radioactivity, spleen ([1]; 10 min): 1.32 ± 0.13 % injected dose per gram
- Biodistribution of radioactivity, stomach ([1]; 10 min): 1.08 ± 0.24 % injected dose per organ
- Biodistribution of radioactivity, thyroid ([1]; 10 min): 0.09 ± 0.02 % injected dose per organ
- Biodistribution of radioactivity, blood ([1]; 30 min): 2.17 ± 0.31 % injected dose per gram
- Biodistribution of radioactivity, brain ([1]; 30 min): 1.05 ± 0.22 % injected dose per gram
- Biodistribution of radioactivity, heart ([1]; 30 min): 1.65 ± 0.43 % injected dose per gram
- Biodistribution of radioactivity, intestine ([1]; 30 min): 19.88 ± 4.22 % injected dose per organ
- Biodistribution of radioactivity, kidney ([1]; 30 min): 6.71 ± 0.78 % injected dose per gram
- Biodistribution of radioactivity, liver ([1]; 30 min): 12.35 ± 2.83 % injected dose per gram
- Biodistribution of radioactivity, lung ([1]; 30 min): 4.25 ± 0.41 % injected dose per gram
- Biodistribution of radioactivity, muscle ([1]; 30 min): 1.29 ± 0.31 % injected dose per gram
- Biodistribution of radioactivity, pancreas ([1]; 30 min): 2.61 ± 0.59 % injected dose per gram
- Biodistribution of radioactivity, spleen ([1]; 30 min): 1.26 ± 0.20 % injected dose per gram
- Biodistribution of radioactivity, stomach ([1]; 30 min): 4.38 ± 1.00 % injected dose per organ
- Biodistribution of radioactivity, thyroid ([1]; 30 min): 0.12 ± 0.01 % injected dose per organ
- Biodistribution of radioactivity, blood ([1]; 60 min): 1.96 ± 0.31 % injected dose per gram
- Biodistribution of radioactivity, brain ([1]; 60 min): 0.55 % injected dose per gram
- Biodistribution of radioactivity, heart ([1]; 60 min): 1.00 ± 0.18 % injected dose per gram
- Biodistribution of radioactivity, intestine ([1]; 60 min): 20.21 ± 7.78 % injected dose per organ
- Biodistribution of radioactivity, kidney ([1]; 60 min): 6.56 ± 1.10 % injected dose per gram
- Biodistribution of radioactivity, liver ([1]; 60 min): 5.15 ± 1.09 % injected dose per gram
- Biodistribution of radioactivity, lung ([1]; 60 min): 4.04 ± 1.63 % injected dose per gram
- Biodistribution of radioactivity, muscle ([1]; 60 min): 1.36 ± 0.25 % injected dose per gram
- Biodistribution of radioactivity, pancreas ([1]; 60 min): 1.97 ± 0.48 % injected dose per gram
- Biodistribution of radioactivity, spleen ([1]; 60 min): 1.14 ± 0.56 % injected dose per gram
- Biodistribution of radioactivity, stomach ([1]; 60 min): 2.44 ± 0.97 % injected dose per organ
- Biodistribution of radioactivity, thyroid ([1]; 60 min): 0.16 ± 0.03 % injected dose per organ
- Biodistribution of radioactivity, brain ([1]; 60 min, listed as [125I]7a): 0.55 ± 0.11 % injected dose per gram
- in vitro autoradiography, plaque labeling (Aβ plaques): specifically label Aβ deposits
- logD [2]: 3.96 ± 0.22
